Source: patent US12655116B2, “Substituted isophthalic acid diamides” (Bayer Aktiengesellschaft, priority 2020, dated 2026)
Values joined by “and” are separate entries in the source; they are usually repeats but may differ in a detail not shown here. Identical values can stand only once.

Assays:
[1] = tested on: ABUTH; experiment: Pre-emergence herbicidal action against ABUTH; type: in vivo, Abutilon theophrasti
Outline: (§1)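 Pre-emergence soil-surface spray of formulated compound (WP or EC; 600 to 800 l/ha; 0.2% wetting agent) over seeds sown in sandy loam. After 3 weeks under greenhouse conditions, damage is estimated visually in percent against untreated plants.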

[2] = tested on: AMARE; experiment: Pre-emergence herbicidal action against AMARE; type: in vivo, Amaranthus retroflexus
Outline: as §1

[3] = tested on: MATIN; experiment: Pre-emergence herbicidal action against MATIN; type: in vivo, Matricaria inodora; conditions: for pest or weed control at 20 g/ha / pest or weed control at 80 g/ha: Tripleurospermum inodorum, 504 h
Outline: as §1

[4] = tested on: STEME; experiment: Pre-emergence herbicidal action against STEME; type: in vivo, Stellaria media
Description: Seeds of monocotyledonous and dicotyledonous weed plants and crop plants are laid out in sandy loam soil in wood-fiber pots and covered with soil. The compounds of the invention, formulated in the form of wettable powders (WP) or as emulsion concentrates (EC), are then applied to the surface of the covering soil in the form of an aqueous suspension or emulsion at a water application rate equivalent to 600 to 800 l/ha, with addition of 0.2% wetting agent. After the treatment, the pots are placed in a greenhouse and kept under good growth conditions for the trial plants. The damage to the test plants is scored visually after a test period of 3 weeks by comparison with untreated controls (herbicidal activity in percent (%): 100% activity=the plants have died, 0% activity=like control plants). […] The tables below illustrate, in an illustrative manner, the post-emergence herbicidal action of the compounds of the invention, the herbicidal activity being stated in percent.

[5] = tested on: VIOTR; experiment: Pre-emergence herbicidal action against VIOTR; type: in vivo, Viola tricolor
Outline: as §1

[6] = tested on: DIGSA; experiment: Pre-emergence herbicidal action against DIGSA; type: in vivo, Digitaria sanguinalis
Outline: as §1

[7] = tested on: ABUTH; experiment: Post-emergence herbicidal action against ABUTH; type: in vivo, Abutilon theophrasti; conditions: visual assessment about 3 weeks after treatment vs untreated controls
Outline: (§2)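 Greenhouse plants in sandy loam were sprayed at the one-leaf stage, 2 to 3 weeks after sowing, with WP or EC formulations as aqueous suspension or emulsion (600 to 800 l/ha water, 0.2% wetting agent). Visual damage was scored about 3 weeks later versus untreated controls, 0% = like control, 100% = dead.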

[8] = tested on: AMARE; experiment: Post-emergence herbicidal action against AMARE; type: in vivo, Amaranthus retroflexus; conditions: 20 g/ha, visual assessment about 3 weeks after treatment, 100% = plants have died, 0% = like control plants; for pest or weed control at 20 g/ha: Amaranthus retroflexus, 504 h
Outline: as §2

[9] = tested on: VIOTR; experiment: Post-emergence herbicidal action against VIOTR; type: in vivo, Viola tricolor; conditions: Viola tricolor, 504 h
Outline: as §2

[10] = tested on: POLCO; experiment: Pre-emergence herbicidal action against POLCO; type: in vivo, Polygonum convolvulus; conditions: Fallopia convolvulus, 504 h; for pest or weed control at 20 g/ha: dosage 20 g/ha; for pest or weed control at 80 g/ha: dosage 80 g/ha
Outline: as §1

[11] = tested on: VERPE; experiment: Pre-emergence herbicidal action against VERPE; type: in vivo, Veronica persica; conditions: Veronica persica, 504 h; for pest or weed control at 80 g/ha: dosage 80 g/ha
Outline: as §1

[12] = tested on: ALOMY; experiment: Pre-emergence herbicidal action against ALOMY; type: in vivo, Alopecurus myosuroides; conditions: Alopecurus myosuroides, 504 h, pre-emergence
Outline: as §1

[13] = tested on: AVEFA; experiment: Pre-emergence herbicidal action against AVEFA; type: in vivo, Avena fatua; conditions: Avena fatua, 504 h; 80 g/ha, pre-emergence
Outline: as §1

[14] = tested on: ECHCG; experiment: Pre-emergence herbicidal action against ECHCG; type: in vivo, Echinochloa crus-galli
Outline: as §1

[15] = tested on: PHBPU; experiment: Pre-emergence herbicidal action against PHBPU; type: in vivo, Pharbitis purpurea; conditions: Ipomoea purpurea, 504 h, dosage 80 g/ha
Outline: as §1

[16] = tested on: SETVI; experiment: Pre-emergence herbicidal action against SETVI; type: in vivo, Setaria viridis; conditions: Setaria viridis, 504 h; for pest or weed control at 80 g/ha: dosage 80 g/ha
Outline: as §1

[17] = tested on: ALOMY; experiment: Post-emergence herbicidal action against ALOMY; type: in vivo, Alopecurus myosuroides; conditions: Alopecurus myosuroides, 504 h, dosage 20 g/ha, visual assessment about 3 weeks after treatment vs untreated controls
Outline: as §2

[18] = tested on: ECHCG; experiment: Post-emergence herbicidal action against ECHCG; type: in vivo, Echinochloa crus-galli; conditions: Echinochloa crus-galli, 504 h, dosage 20 g/ha
Outline: as §2

[19] = tested on: MATIN; experiment: Post-emergence herbicidal action against MATIN; type: in vivo, Matricaria inodora; conditions: Tripleurospermum inodorum, 504 h
Outline: as §2

[20] = tested on: PHBPU; experiment: Post-emergence herbicidal action against PHBPU; type: in vivo, Pharbitis purpurea; conditions: Ipomoea purpurea, 504 h
Outline: as §2

[21] = tested on: SETVI; experiment: Post-emergence herbicidal action against SETVI; type: in vivo, Setaria viridis
Outline: as §2

[22] = tested on: VERPE; experiment: Post-emergence herbicidal action against VERPE; type: in vivo, Veronica persica; conditions: Veronica persica, 504 h, 20 g/ha
Outline: as §2

[23] = tested on: DIGSA; experiment: Post-emergence herbicidal action against DIGSA; type: in vivo, Digitaria sanguinalis; conditions: Digitaria sanguinalis, 504 h
Outline: as §2

[24] = Abutilon theophrasti, 504 h, 80 g/ha, scored visually after 3 weeks vs untreated controls (100% = plants have died, 0% = like control plants)
[25] = Amaranthus retroflexus, 504 h, 20 g/ha, scored visually after 3 weeks vs untreated controls, 100% = plants have died, 0% = like control plants
[26] = Amaranthus retroflexus, 504 h, 80 g/ha, scored visually after 3 weeks vs untreated controls, 100% = plants have died, 0% = like control plants
[27] = Stellaria media, 504 h, dosage 80 g/ha
[28] = Viola tricolor, 504 h, dosage 80 g/ha
[29] = Digitaria sanguinalis, 504 h, dosage 80 g/ha
[30] = Abutilon theophrasti, 504 h, dosage 20 g/ha
[31] = 80 g/ha, scored visually after 3 weeks vs untreated controls (100% = plants have died, 0% = like control plants)

Structure (SMILES)	pest or weed control at 80 g/ha [1, 24]	pest or weed control at 20 g/ha [2, 25]	pest or weed control at 80 g/ha [2, 26]	pest or weed control at 20 g/ha ([3]; dosage 20 g/ha)	pest or weed control at 80 g/ha ([3]; dosage 80 g/ha)	pest or weed control at 80 g/ha [4, 27]	pest or weed control at 80 g/ha [5, 28]	pest or weed control at 80 g/ha [6, 29]	pest or weed control at 20 g/ha [7, 30]	pest or weed control at 20 g/ha [8]	pest or weed control at 20 g/ha [9]	pest or weed control at 20 g/ha [10]	pest or weed control at 80 g/ha [10]	pest or weed control at 80 g/ha [11]	pest or weed control at 5 g/ha [9]	pest or weed control at 80 g/ha [16]	other results
CNC(=O)c1c(S(C)(=O)=O)ccc(C(=O)Nc2nnnn2C)c1Cl [Example 1-123]	100%	80%	100%	80%	100%	90%	80%	90%	80%	80%	100%						
Cn1nnnc1NC(=O)c1ccc(S(C)(=O)=O)c(C(=O)NC2CC2)c1Cl [Example 1-125]		90%	100%	80%	100%	100%	100%	90%		80%	100%	80%	80%	80%	100%		pest or weed control at 20 g/ha ([11]; dosage 20 g/ha): 80%
CCNC(=O)c1c(C(F)F)ccc(C(=O)Nc2nnnn2CC)c1CC [Example 2-278]	100%	100%	100%	100%	100%		100%	100%	90%	100%	90%	80%	80%	100%	90%	100%	pest or weed control at 20 g/ha ([1]; Abutilon theophrasti, 504 h, dosage 20 g/ha, scored visually after 3 weeks vs untreated controls, 100% = plants have died, 0% = like control plants, read-out: Pre-emergence action against ABUTH (herbicidal activity in percent)): 100%; pest or weed control at 80 g/ha [12, 31]: 90%; pest or weed control at 20 g/ha ([12]; 20 g/ha, scored visually after 3 weeks, 100% = plants have died, 0% = like control plants): 80%; pest or weed control at 80 g/ha [13]: 90%; pest or weed control at 80 g/ha ([14]; Echinochloa crus-galli, 504 h, 80 g/ha): 100%; pest or weed control at 80 g/ha [15]: 90%; pest or weed control at 20 g/ha ([5]; Viola tricolor, 504 h, dosage 20 g/ha): 100%; pest or weed control at 20 g/ha ([6]; Digitaria sanguinalis, 504 h, dosage 20 g/ha): 100%; pest or weed control at 5 g/ha ([7]; Abutilon theophrasti, 504 h, dosage 5 g/ha): 80%; pest or weed control at 20 g/ha [17]: 80%; pest or weed control at 20 g/ha [18]: 90%; pest or weed control at 5 g/ha ([19]; dosage 5 g/ha): 90%; pest or weed control at 20 g/ha ([19]; dosage 20 g/ha): 90%; pest or weed control at 5 g/ha ([20]; dosage 5 g/ha): 80%; pest or weed control at 20 g/ha ([20]; dosage 20 g/ha): 90%; pest or weed control at 5 g/ha ([21]; Setaria viridis, 504 h, dosage 5 g/ha): 80%; pest or weed control at 20 g/ha ([21]; Setaria viridis, 504 h, dosage 20 g/ha): 90%; pest or weed control at 20 g/ha [22]: 100%; pest or weed control at 5 g/ha ([23]; 5 g/ha): 90%; pest or weed control at 20 g/ha ([23]; 20 g/ha): 90%
CCc1c(C(=O)Nc2ncnn2C)ccc(C(F)(F)F)c1C(=O)NC1CC1 [Example 4-212]																	Pre-emergence action against ABUTH (herbicidal activity) [1, 31]: 90%; Pre-emergence action against AMARE in % ([2]; 20 g/ha, scored visually after 3 weeks vs untreated controls, 100% = plants have died, 0% = like control plants): 90%; Pre-emergence action against AMARE in % [2, 31]: 90%; Pre-emergence action against ECHCG in % ([14]; 80 g/ha): 80%; Pre-emergence action against MATIN in % ([3]; dosage 20 g/ha): 80%; Pre-emergence action against MATIN in % ([3]; dosage 80 g/ha): 80% and 90%; Pre-emergence action against STEME in % ([4]; dosage 80 g/ha): 90%; Pre-emergence action against VIOTR in % ([5]; dosage 80 g/ha): 90%; Pre-emergence action against DIGSA in % ([6]; dosage 20 g/ha): 80%; Pre-emergence action against DIGSA in % ([6]; dosage 80 g/ha): 90%; Post-emergence action against ABUTH in % ([7]; dosage 20 g/ha): 80%; Post-emergence action at 20 g/ha against AMARE in % [8]: 80%; Post-emergence action against SETVI in % ([21]; dosage 20 g/ha): 80%
CC(=O)NC(=O)c1c(C(F)(F)F)ccc(C(=O)Nc2nnc(C)o2)c1Cl [Example 6-252]	80%	80%	90%					90%	80%							90%	pest or weed control at 320 g/ha ([1]; Abutilon theophrasti, 504 h, Dosage: 320 g/ha, scored visually after 3 weeks, 100% = plants have died, 0% = like control plants): 90%; pest or weed control at 320 g/ha ([2]; Amaranthus retroflexus, 504 h, 320 g/ha, scored visually after 3 weeks, 100% = plants have died, 0% = like control plants): 90%; pest or weed control at 320 g/ha ([14]; Echinochloa crus-galli, 504 h, 320 g/ha): 90%; pest or weed control at 320 g/ha ([16]; dosage 320 g/ha): 90%; pest or weed control at 320 g/ha ([4]; Stellaria media, 504 h, dosage 320 g/ha): 90%; pest or weed control at 320 g/ha ([6]; Digitaria sanguinalis, 504 h, dosage 320 g/ha): 90%; pest or weed control at 80 g/ha ([7]; Abutilon theophrasti, 504 h, dosage 80 g/ha): 100%
